The values that follow are results of earlier work, collected in patent publication US11325944B2 (priority 2017, dated 2022).

[ ]: non-standard residue; d: D form.

Series [1] concerns KOR.
Series [2] has as its target KOR (Homo sapiens, UniProt P41145).
The target in series [3] is DOR. The settings on record: δ opioid receptor, CHO cell membranes; read-out: Kd of radioligand.

KOR (Homo sapiens, UniProt P41145), sequence (P41145 whole entry): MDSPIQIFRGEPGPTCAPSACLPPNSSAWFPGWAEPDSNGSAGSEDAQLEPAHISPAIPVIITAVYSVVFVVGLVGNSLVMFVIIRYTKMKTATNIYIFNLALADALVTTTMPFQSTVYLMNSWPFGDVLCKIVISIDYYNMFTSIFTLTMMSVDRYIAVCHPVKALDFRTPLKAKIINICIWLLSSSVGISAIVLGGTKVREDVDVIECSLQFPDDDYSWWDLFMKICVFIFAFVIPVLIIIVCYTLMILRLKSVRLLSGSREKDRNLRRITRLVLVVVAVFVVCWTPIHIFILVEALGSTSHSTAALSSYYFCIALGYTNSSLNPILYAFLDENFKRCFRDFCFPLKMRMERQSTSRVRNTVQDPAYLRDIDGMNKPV

For the substance “cyclo [CJ-15,208, cyclo [Phe-D-Pro-Phe-Trp]]”, the “agonist (antinociceptive) activity in vivo” value in series [1] is recorded as “mild agonist (antinociceptive) activity”.
With cyclo(F[dP]F[dW]) [[D-Trp]CJ-15,208], the “selectivity for KOR over MOR and DOR” value in series [2] was “selective activity against the kappa opioid receptor (KOR) over mu opioid receptors (MOR) and delta opioid receptors (DOR)”. Moreover, in series [2] (in vitro), the “KOR antagonism in vitro” value is given as “antagonize KOR in vitro”. The KOR antagonism entry in series [1] (in vivo) is recorded as “exhibited KOR antagonism”.
What is called Kd is the free concentration of one partner at which half of the binding sites on the other are occupied at equilibrium, for simple one-to-one binding. Turning to “cyclo[D-Pen^2, D-Pen]enkephalin [[^3H]-DPDPE]”, in series [3], the equilibrium dissociation constant (Kd) is 1.76 nM.
